What was measured:
Aurora B = Aurora B (Homo sapiens, UniProt Q96GD4); experiment: Aurora B enzyme assay (Caliper); format: biochemical
Method: (§1) The Aurora and other kinase assays described here were performed on two Caliper Life Sciences systems, the LC3000 and the Desktop Profiler. These provide data on enzyme activity via measurement of the relative amounts of phosphorylated or unphosphorylated fluorescently labelled substrate peptide at the end of an enzymatic reaction. These different states of peptide are resolved by applying a potential difference across the sample. The presence of a charged phosphate group on the product (as opposed to the substrate) causes a different peptide mobility between the two peptides. This is visualized by excitation of a fluorescent label on the substrate and product peptides and represented as peaks within the analysis software.

Aurora A = molecular target: T1, Aurora A (Homo sapiens, UniProt O14965); experiment: Aurora A enzyme assay (Caliper LC3000 mobility shift); format: biochemical
T1 construct: N-terminal GST fusion with full length Aurora A (1-403 amino acids); purchased Carna Biosciences 05-101
T1 sequence (O14965 1-403): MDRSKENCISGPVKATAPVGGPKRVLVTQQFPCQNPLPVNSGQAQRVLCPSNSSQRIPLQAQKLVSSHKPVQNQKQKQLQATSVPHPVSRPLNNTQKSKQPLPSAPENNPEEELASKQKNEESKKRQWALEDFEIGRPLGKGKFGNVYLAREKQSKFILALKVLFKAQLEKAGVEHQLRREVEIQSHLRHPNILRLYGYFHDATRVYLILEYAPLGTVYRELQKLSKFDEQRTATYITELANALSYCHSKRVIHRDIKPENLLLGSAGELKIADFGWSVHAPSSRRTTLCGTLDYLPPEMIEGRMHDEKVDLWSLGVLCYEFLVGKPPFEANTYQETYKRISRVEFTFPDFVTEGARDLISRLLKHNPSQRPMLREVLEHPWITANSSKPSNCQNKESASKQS
Method: as §1
For example, in order to measure inhibitor activity of Aurora A inhibitors in the Caliper Life Sciences LC3000, a TTP Mosquito liquid handling instrument was used to place […] of an appropriate concentration of inhibitor in 100% DMSO (for a dose response curve calculation) into each well of a 384-well plate. To this reaction components were added to a final volume of 25 μl: • 0.067 ng/μl GST-Aurora A (Carna Biosciences 05-101. N-terminal GST fusion with full length Aurora A (1-403 amino acids), accession number NP_940835.1). • 15 μM ATP (Fluka, 02055) • 1 mM DTT (Sigma, D0632) • 1 mM MgC12 (Sigma, M1028) • 1 μM substrate peptide (sequence FITC-LRRASLG-(CONH2), synthesized by Tufts Peptide Synthesis service. • 100 mM HEPES pH 7.5 (Calbiochem, 391338) • 0.015% Brij-35 (Sigma, B4184)
The reaction was incubated for 90 min at 25° C., and then stopped by the addition of 70 μl of Stop buffer (100 mM HEPES pH 7.5, 0.015% Brij-35, 10 mM EDTA (Sigma, E7889)).
The plate was read on a Caliper LC 3000 in an Off-Chip mobility shift assay format, using the following parameters for a 12-sipper chip: screening pressure −1.8 psi, upstream voltage −2700, downstream voltage −1000. These conditions cause unphosphorylated substrate and phosphorylated product peptide to resolve as separate peaks allowing direct measurement of percentage of conversion of substrate to product. The percent conversion was plotted against concentration of inhibitor to produce a sigmoidal dose response curve, from which an IC50 was calculated using XLFit for Microsoft Excel.

MiaPaca2 = experiment: Cellular activity MiaPaca2; format: cell-based; settings: Homo sapiens, MIA PaCa-2
Method: (§2) The susceptibility of a particular cell to treatment with the compounds according to the invention was determined by in vitro tests. Typically, a culture of the cell was combined with a compound according to the invention at various concentrations for a period of time that was sufficient to allow the active agents to induce cell death or to inhibit migration, usually between about one hour and one week. In vitro testing was carried out using cultivated cells from a biopsy sample. The viable cells remaining after the treatment then were counted.

A549 = experiment: Cellular activity A549; format: cell-based; settings: Homo sapiens
Method: as §2

Aurora B, sequence (Q96GD4 whole entry): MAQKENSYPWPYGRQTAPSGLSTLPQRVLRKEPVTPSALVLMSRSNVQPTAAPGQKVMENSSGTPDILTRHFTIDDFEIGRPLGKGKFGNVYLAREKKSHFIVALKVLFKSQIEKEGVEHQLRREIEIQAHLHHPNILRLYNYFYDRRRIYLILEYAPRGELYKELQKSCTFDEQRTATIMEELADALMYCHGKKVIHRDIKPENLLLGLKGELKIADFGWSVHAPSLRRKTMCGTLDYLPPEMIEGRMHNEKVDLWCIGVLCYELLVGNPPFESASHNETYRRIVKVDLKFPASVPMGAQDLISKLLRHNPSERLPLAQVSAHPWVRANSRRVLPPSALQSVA

SMILES | IC50 (Aurora B) | IC50 (Aurora A) | IC50 (MiaPaca2) | IC50 (A549)
CN1CCN(c2ccc3cc2C(=O)CS(=O)(=O)[C@@H]2C[C@@H]4C[C@H]2[C@@H](Nc2nc(ncc2F)N3)[C@H]4C(N)=O)CC1 | 1000 to 6250 nM | 1 to 100 nM | – | –
CN1CCN(c2ccc3cc2NC(=O)CN[C@@H]2C[C@@H]4C[C@H]2[C@@H](Nc2nc(ncc2F)N3)[C@H]4C(N)=O)CC1 | 1 to 100 nM | 1 to 100 nM | 1000 to 6250 nM | 1000 to 6250 nM
O[C@@H]1COc2cccc(c2)Nc2ncc(F)c(n2)NC2CCCC(C2)OC[C@@H]1O (stereo partly drawn) | – | 101 to 1000 nM | – | –
CN1CCC(c2ccc3cc2OCCS[C@@H]2C[C@@H]4C[C@H]2[C@@H](Nc2nc(ncc2F)N3)[C@H]4C(N)=O)CC1 | 1 to 100 nM | 1 to 100 nM | 101 to 1000 nM | 101 to 1000 nM
NC(=O)[C@H]1[C@H]2C[C@H]3[C@H]1Nc1nc(ncc1F)Nc1cccc(c1)CS(=O)(=O)N[C@@H]3C2 | 101 to 1000 nM | 101 to 1000 nM | – | –
NC[C@H]1[C@H]2C[C@H]3[C@H]1Nc1nc(ncc1F)Nc1cccc(c1)C(O)CS[C@@H]3C2 (stereo partly drawn) | – | 1000 to 6250 nM | > 6250 nM | > 6250 nM
NC(=O)[C@H]1[C@H]2C[C@H]3[C@H]1Nc1nc(ncc1F)Nc1cc(ccc1O)C(=O)CS[C@@H]3C2 | 1000 to 6250 nM | 1000 to 6250 nM | – | –
NC(=O)[C@H]1C([C@@H](O)CO)CC2C(O)[C@H](O)COc3cccc(c3)Nc3ncc(F)c(n3)N[C@H]21 (stereo partly drawn) | – | 1000 to 6250 nM | – | –
Fc1cnc2nc1NC1CCCC(C1)OC/C=C\COc1cccc(c1)N2 (stereo not drawn) | 101 to 1000 nM | 101 to 1000 nM | – | –
Fc1cnc2nc1N[C@H]1CCC[C@@H](C1)OCCCCOc1cccc(c1)N2 | – | 1000 to 6250 nM | – | –
Fc1cnc2nc1NC1CCCC(C1)OC/C=C/COc1cccc(c1)N2 (stereo not drawn) | 101 to 1000 nM | 101 to 1000 nM | – | –
NC(=O)[C@H]1[C@H]2C[C@H]3[C@H]1Nc1nc(ncc1F)Nc1cccc(c1)CCS(=O)(=O)[C@@H]3C2 | 1 to 100 nM | 1 to 100 nM | 1000 to 6250 nM | 1000 to 6250 nM
NC(=O)[C@H]1C([C@@H](O)CO)CC2[C@H]1Nc1nc(ncc1F)Nc1cccc(c1)OC[C@H](O)[C@H]2O (stereo partly drawn) | – | 1000 to 6250 nM | – | –
NC(=O)[C@H]1[C@@H]2C[C@H]3CNS(=O)(=O)c4cccc(c4)Nc4ncc(F)c(n4)N[C@@H]1[C@@H]3C2 | 1 to 100 nM | 1 to 100 nM | 1000 to 6250 nM | 1000 to 6250 nM
CN1CCN(c2ccc3cc2C(=O)CS[C@@H]2C[C@@H]4C[C@H]2[C@@H](Nc2nc(ncc2F)N3)[C@H]4C(N)=O)CC1 | – | 1 to 100 nM | 1000 to 6250 nM | 1000 to 6250 nM
NC(=O)[C@H]1[C@H]2C[C@H]3[C@H]1Nc1nc(ncc1F)Nc1cccc(c1)NC(=O)CN[C@@H]3C2 | 101 to 1000 nM | 1000 to 6250 nM | – | –
CN1CCN(c2ccc3cc2C(O)CS(=O)(=O)[C@@H]2C[C@@H]4C[C@H]2[C@@H](Nc2nc(ncc2F)N3)[C@H]4C(N)=O)CC1 (stereo partly drawn) | 1 to 100 nM | 1 to 100 nM | – | –
CC(=O)N1Cc2cccc(c2)Nc2ncc(F)c(n2)N[C@@H]2[C@@H]3C[C@@H](C[C@H]3C1)[C@@H]2C(=O)O | > 6250 nM | 1000 to 6250 nM | – | –
NC(=O)[C@H]1[C@H]2C[C@H]3[C@H]1Nc1nc(ncc1F)Nc1cccc(c1)COCc1cn(nn1)[C@@H]3C2 | – | 1 to 100 nM | 1000 to 6250 nM | 1000 to 6250 nM
NC(=O)[C@H]1[C@H]2C[C@H]3[C@H]1Nc1nc(ncc1F)Nc1cccc(c1)N(Cc1cccs1)C(=O)CS[C@@H]3C2 | 1000 to 6250 nM | 101 to 1000 nM | – | –
NC(=O)[C@H]1[C@H]2C[C@H]3[C@H]1Nc1nc(ncc1F)Nc1cccc(c1)[C@H](OCCO)CS[C@@H]3C2 | – | 1 to 100 nM | 1000 to 6250 nM | 1000 to 6250 nM
CN1CCN(c2ccc3cc2OCCN(C)[C@@H]2C[C@@H]4C[C@H]2[C@@H](Nc2nc(ncc2F)N3)[C@H]4C(N)=O)CC1 | 1 to 100 nM | 1 to 100 nM | – | –
Fc1cnc2nc1NC1CCC(CC1)OC/C=C\COc1cccc(c1)N2 | > 6250 nM | 101 to 1000 nM | – | –

From patent US8815872B2, “Macrocyclics pyrimidines as aurora kinase inhibitors” (Merck Patent GmbH, priority 2008, dated 2014)
